US20240366612A1, “COMPOUNDS AND METHODS FOR MODULATING NUCLEIC ACID SPLICING” (REMIX THERAPEUTICS INC., priority 2021, published 2024)
Counter-ions that a name gives are not always drawn.

How the values were obtained:
[1] = tested on: HiBiT-tagged MYB protein in K562 cells; assay: HiBiT protein abundance assay, MYB; assay type: cell-based, human; conditions: HiBiT-modified K562 cells, 24 hours, luminescence
How it was run: (§1)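 K562 lines with the endogenous target HiBiT-tagged, seeded in IMDM+1% FBS, got a 10-point 3-fold dilution series (top final 10 μM, DMSO ≤0.25%) for 24 hours at 37° C. Lytic LgBiT luminescence was normalized against unmodified-K562 and DMSO-only controls, and IC50 was interpolated at 50% from a four-parameter logistic fit.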

[2] = tested on: HiBiT-tagged HTT protein in K562 cells; assay: HiBiT protein abundance assay, HTT; assay type: cell-based, human; conditions: HiBiT-modified K562 cells, 24 hours, luminescence
How it was run: as §1

[3] = Cell Titer Glo 2.0 cell viability assay; conditions: human, K562 cells
Procedure: Compounds described herein were screened for toxicity in K562 (human chronic myelogenous leukemia) cells using a Cell Titer Glo 2.0 assay.
• Promega CellTiter-Gbo® 2.0 Cell Viability Assay (cat #G9241) • Corning 384-well TC-treated microplates (cat #3570)
Cells were plated at 500 cells/well (K562 cells) in 45 μL of IMDM supplemented with 10% FBS in a 384-well opaque plate. Wells containing only medium were used as a blank control. Test compounds (e.g., compounds of Formula (I), (II), and (III)) were first serially diluted in DMSO then diluted 1:100 with IMDM+10% FBS. The final concentration of DMSO was 0.1% in each well. The cells were incubated for 72 hours at 37° C. and 5% CO2 before assaying with Cell Titer Glo 2.0 reagent.

[4] = tested on: HiBiT-tagged Target C protein in K562 cells; assay: HiBiT protein abundance assay, Target C; assay type: cell-based, human; conditions: HiBiT-modified K562 cells, 24 hours, luminescence
How it was run: as §1

SMILES	IC50 [1]	IC50 [2]	GI50 at 72 h [3]	IC50 [4]
Cc1cn2cc(-c3nc4sc(C5CCNCC5)cc4c(=O)[nH]3)cc(F)c2n1 [Compound 250, 2-(8-fluoro-2-methylimidazo[1,2-a]pyridin-6-yl)-6-(piperidin-4-yl)thieno[2,3-d]pyrimidin-4(3H)-one]	0.1 to 1 µM	0.1 to 1 µM	0.1 to 1 µM	0.1 to 1 µM
Cc1nc(-c2nc3ncn(C4CCNCC4)c(=O)c3s2)cc2cn(C)nc12 [Compound 251, 2-(2,7-dimethyl-2H-pyrazolo[3,4-c]pyridin-5-yl)-6-(piperidin-4-yl)thiazolo[4,5-d]pyrimidin-7(6H)-one]	1 to 10 µM	1 to 10 µM	1 to 10 µM	> 10 µM
Cn1cc2cc(-c3nc4ncn(C5CCNCC5)c(=O)c4s3)c(O)cc2n1 [Compound 253, 2-(6-hydroxy-2-methyl-2H-indazol-5-yl)-6-(piperidin-4-yl)thiazolo[4,5-d]pyrimidin-7(6H)-one, hydrochloride]	1 to 10 µM	1 to 10 µM	> 10 µM	1 to 10 µM
Cc1cn2cc(-c3nc4sc(C5CCN(C)CC5)cc4c(=O)[nH]3)cc(F)c2n1 [Compound 256, 2-(8-fluoro-2-methylimidazo[1,2-a]pyridin-6-yl)-6-(1-methylpiperidin-4-yl)thieno[2,3-d]pyrimidin-4(3H)-one]	> 10 µM	> 10 µM	> 10 µM	> 10 µM
Cn1cc2cc(-c3cc4ncn(C5CCNCC5)c(=O)c4s3)cc(F)c2n1 [Compound 257]	1 to 10 µM	1 to 10 µM	1 to 10 µM	1 to 10 µM
Cn1cc2cc(-c3cc4ncn(C5CCNCC5)c(=O)c4s3)c(F)cc2n1 [Compound 258]	0.1 to 1 µM	0.1 to 1 µM	1 to 10 µM	1 to 10 µM
Cn1cc2cc(-c3cc4ncn(C5CCNCC5)c(=O)c4s3)cc(C#N)c2n1 [Compound 259]	0.1 to 1 µM	0.1 to 1 µM	1 to 10 µM	1 to 10 µM
COc1cc(-c2cc3ncn(C4CCNCC4)c(=O)c3s2)cnn1 [Compound 260]	1 to 10 µM	1 to 10 µM	1 to 10 µM	1 to 10 µM
Cc1cn2cc(-c3cc4ncn(C5CCNCC5)c(=O)c4s3)cc(C)c2n1 [Compound 261]	0.1 to 1 µM	0.1 to 1 µM	1 to 10 µM	1 to 10 µM
Cc1cn2nc(-c3cc4ncn(C5CCNCC5)c(=O)c4s3)cc2c(C)n1 [Compound 262]	0.1 to 1 µM	0.1 to 1 µM	0.1 to 1 µM	0.1 to 1 µM
COc1cc(-c2cc3ncn(C4CCNCC4)c(=O)c3s2)ccn1 [Compound 263]	1 to 10 µM	1 to 10 µM	1 to 10 µM	1 to 10 µM
Cc1cn2cc(-c3cc4ncn(C5CCNCC5)c(=O)c4s3)ncc2n1 [Compound 264]	1 to 10 µM	1 to 10 µM	1 to 10 µM	1 to 10 µM
Cc1cn2cc(-c3cc4ncn(C5CCN(C)CC5)c(=O)c4s3)cc(F)c2n1 [Compound 265, 6-{8-fluoro-2-methylimidazo[1,2-a]pyridin-6-yl}-3-(1-methylpiperidin-4-yl)thieno[3,2-d]pyrimidin-4-one]	0.1 to 1 µM	0.1 to 1 µM	0.1 to 1 µM	0.1 to 1 µM
Cc1cn2nc(-c3nc4sc(N5CCNCC5)nc4c(=O)[nH]3)cc2c(C)n1 [Compound 267]	0.1 to 1 µM	0.1 to 1 µM	0.1 to 1 µM	0.1 to 1 µM
Cc1cn2nc(-c3nc4sc(N5CCN(C)CC5)nc4c(=O)[nH]3)cc2c(C)n1 [Compound 268]	> 10 µM	> 10 µM	> 10 µM	> 10 µM
Cc1cn2cc(-c3cc4ncn(N5CCNCC5)c(=O)c4s3)cc(F)c2n1 [Compound 269, 6-{8-fluoro-2-methylimidazo[1,2-a]pyridin-6-yl}-3-(piperazin-1-yl)thieno[3,2-d]pyrimidin-4-one]	0.1 to 1 µM	0.1 to 1 µM	0.1 to 1 µM	0.1 to 1 µM
Cc1cn2cc(-c3cc4ncn(C5CCNC5)c(=O)c4s3)cc(F)c2n1 (stereo not drawn) [Compound 270, 6-{8-fluoro-2-methylimidazo[1,2-a]pyridin-6-yl}-3-(pyrrolidin-3-yl)thieno[3,2-d]pyrimidin-4-one]	0.1 to 1 µM	0.1 to 1 µM	0.1 to 1 µM	0.1 to 1 µM

SMILES	IC50 [1]	IC50 [2]	GI50 at 72 h [3]	IC50 [4]
Cc1nc(-c2cc3ncn(C4CCNCC4)c(=O)c3s2)cc2cn(C)nc12 [Compound 271]	1 to 10 µM	1 to 10 µM	1 to 10 µM	1 to 10 µM
Cc1cn2cc(-c3cc4ncn(C5CCNCC5(F)F)c(=O)c4s3)cc(F)c2n1 (stereo not drawn) [Compound 274, 3-(3,3-difluoropiperidin-4-yl)-6-{8-fluoro-2-methylimidazo[1,2-a]pyridin-6-yl}thieno[3,2-d]pyrimidin-4-one]	> 10 µM	> 10 µM	> 10 µM	> 10 µM
Cc1cn2cc(-c3cc4ncn(C5CCCNCC5)c(=O)c4s3)cc(F)c2n1 (stereo not drawn) [Compound 275, 3-(azepan-4-yl)-6-{8-fluoro-2-methylimidazo[1,2-a]pyridin-6-yl}thieno[3,2-d]pyrimidin-4-one]	0.1 to 1 µM	0.1 to 1 µM	0.1 to 1 µM	0.1 to 1 µM
Cc1cn2cc(-c3cc4ncn(C5=CCNCC5)c(=O)c4s3)cc(F)c2n1 [Compound 276, 6-{8-fluoro-2-methylimidazo[1,2-a]pyridin-6-yl}-3-(1,2,3,6-tetrahydropyridin-4-yl)thieno[3,2-d]pyrimidin-4-one]	0.1 to 1 µM	0.1 to 1 µM	0.1 to 1 µM	0.1 to 1 µM
Cc1cn2cc(-c3cc4ncn(C5CNCCC5=O)c(=O)c4s3)cc(F)c2n1 (stereo not drawn) [Compound 279, 3-(6-{8-fluoro-2-methylimidazo[1,2-a]pyridin-6-yl}-4-oxothieno [3,2-d]pyrimidin-3-yl)piperidin-4-one]	> 10 µM	> 10 µM	> 10 µM	> 10 µM
Cc1cn2cc(N3CCc4cc(C5CCNCC5)sc4C3=O)cc(F)c2n1 [Compound 800, 6-[8-fluoro-2-methylimidazo[1,2-a]pyridin-6-yl]-2-(piperidin-4-yl)-4H,5H-thieno[2,3-c]pyridin-7-one]	> 10 µM	> 10 µM	> 10 µM	> 10 µM
Cc1cn2cc(-n3ccc4cc(C5CCNCC5)sc4c3=O)cc(F)c2n1 [Compound 801, 6-[8-fluoro-2-methylimidazo[1,2-a]pyridin-6-yl]-2-(piperidin-4-yl)thieno[2,3-c]pyridin-7-one]	> 10 µM	> 10 µM	> 10 µM	> 10 µM
Cc1cc(-c2cc3cnn(C4CCNCC4)c(=O)c3s2)cc2cn(C)nc12 [Compound 802, 2-(2,7-dimethyl-2H-indazol-5-yl)-6-(piperidin-4-yl)thieno[2,3-d]pyridazin-7(6H)-one]	0.1 to 1 µM	< 0.1 µM	0.1 to 1 µM	0.1 to 1 µM
Cc1cn2cc(-c3cc4ccn(C5CCNCC5)c(=O)c4s3)cc(F)c2n1 [Compound 804, 2-(8-fluoro-2-methylimidazo[1,2-a]pyridin-6-yl)-6-(piperidin-4-yl)thieno[2,3-c]pyridin-7(6H)-one]	0.1 to 1 µM	0.1 to 1 µM	0.1 to 1 µM	0.1 to 1 µM
Cc1cc(-c2cc3ccn(C4CCNCC4)c(=O)c3s2)cc2cn(C)nc12 [Compound 805, 2-(2,7-dimethyl-2H-indazol-5-yl)-6-(piperidin-4-yl)thieno[2,3-c]pyridin-7(6H)-one]	0.1 to 1 µM	0.1 to 1 µM	1 to 10 µM	0.1 to 1 µM
Cc1cn2nc(-c3cc4ccn(C5CCNCC5)c(=O)c4s3)cc(C)c2n1 [Compound 806, 2-(2,8-dimethylimidazo[1,2-b]pyridazin-6-yl)-6-(piperidin-4-yl)thieno[2,3-c]pyridin-7(6H)-one]	0.1 to 1 µM	0.1 to 1 µM	0.1 to 1 µM	0.1 to 1 µM
Cc1cn2cc(-c3cc4ccn(C5CCN(C)CC5)c(=O)c4s3)cc(F)c2n1 [Compound 808, 2-(8-fluoro-2-methylimidazo[1,2-a]pyridin-6-yl)-6-(1-methylpiperidin-4-yl)thieno[2,3-c]pyridin-7(6H)-one]	0.1 to 1 µM	0.1 to 1 µM	0.1 to 1 µM	1 to 10 µM
Cc1cn2nc(-c3cc4ccn(C5CCN(C)CC5)c(=O)c4s3)cc(C)c2n1 [Compound 809]	1 to 10 µM	1 to 10 µM	1 to 10 µM	1 to 10 µM
Cc1cn2nc(-c3nc4cnn(C5CCNCC5)c(=O)c4s3)cc(C)c2n1 [Compound 810]	0.1 to 1 µM	0.1 to 1 µM	0.1 to 1 µM	0.1 to 1 µM
Cc1nc(-c2nc3cnn(C4CCNCC4)c(=O)c3s2)cc2cn(C)nc12 [Compound 811]	1 to 10 µM	1 to 10 µM	1 to 10 µM	> 10 µM
Cc1cn2cc(-c3nc4cnn(C5CCNCC5)c(=O)c4s3)nc(C)c2n1 [Compound 812, 2-(2,8-dimethylimidazo[1,2-a]pyrazin-6-yl)-6-(piperidin-4-yl)thiazolo[4,5-d]pyridazin-7(6H)-one]	0.1 to 1 µM	0.1 to 1 µM	0.1 to 1 µM	0.1 to 1 µM
